Experiment [1] has as its system Vibrio parahaemolyticus. Description: Bactericidal activity against Vibrio parahaemolyticus ATCC17802 assessed as killing rate at 0.5 X MIC by measuring time limit of detection by bacterial killing kinetic assay. In kind it is functional.
In another experiment the test system is Escherichia coli. Description: Antimicrobial activity against Escherichia coli ATCC27622 by two fold broth microdilution method. Type of experiment: functional.
The next experiment relates to Bacillus cereus. As to the kind of experiment: Antimicrobial activity against clinical isolates Bacillus cereus by two fold broth microdilution method. Type of experiment: functional.
Experiment [2] concerns Vibrio parahaemolyticus. As to the kind of experiment: Antimicrobial activity against Vibrio parahaemolyticus ATCC17802 by two fold broth microdilution method. Type of experiment: functional.
For experiment [3], the system named is Staphylococcus aureus. As to the kind of experiment: Antimicrobial activity against Staphylococcus aureus ATCC25923 by two fold broth microdilution method. In kind it is functional.
Experiment [4] deals with Staphylococcus aureus. As to the kind of experiment: Antimicrobial activity against clinical isolates Staphylococcus aureus by two fold broth microdilution method. In kind it is functional.
The test system of a further experiment is Cell membrane. Description: Induction of inner membrane permeabilization in Vibrio parahaemolyticus ATCC17802 assessed as increase in PI fluorescence intensity at 5 times MIC by propidium iodide penetration assay. Type of experiment: cell membranes. To be noted: time <= 200.0 min.

≈ marks a conversion by molar mass, not a printed value. Calls of active or inactive are those of the source. The calls are words filed in the database; no cut-off is given here. Where a SMILES comes first, the peptide text is derived from it.

On to `CC[C@H](C)[C@H](NC(=O)[C@H](C)NC(=O)[C@H](CCCNC(=N)N)NC(=O)[C@H](C)NC(=O)[C@H](CC(C)C)NC(=O)[C@H](CCCCN)NC(=O)[C@H](CCCCN)NC(=O)[C@H](Cc1ccccc1)NC(=O)[C@H](CC(C)C)NC(=O)CNC(=O)[C@H](C)N)C(=O)N[C@@H](C)C(=O)N[C@@H](CCCCN)C(=O)NCC(=O)N[C@@H](Cc1ccccc1)C(=O)N[C@@H](CCCCN)C(=O)N[C@@H](C)C(=O)O` (H-AGLFKKLARAIAKGFKA-OH), for which, in the experiment on Vibrio parahaemolyticus [1], the Time was more than 180 min. The MIC came out at 9.38 µg/mL (≈ 5.24 µM) in the experiment on Escherichia coli; 18.8 µg/mL (≈ 10.5 µM) in the experiment on Bacillus cereus; 4.69 µg/mL (≈ 2.62 µM) against Vibrio parahaemolyticus [2]; 9.38 µg/mL (≈ 5.24 µM) with Staphylococcus aureus [3] (read-out: MIC); 18.8 µg/mL (≈ 10.5 µM) in the experiment on Staphylococcus aureus [4].

For the compound `CC[C@H](C)[C@H](NC(=O)[C@H](C)NC(=O)[C@H](CCCNC(=N)N)NC(=O)[C@H](C)NC(=O)[C@H](CC(C)C)NC(=O)[C@H](CCCCN)NC(=O)[C@H](CCCCN)NC(=O)[C@H](Cc1ccccc1)NC(=O)[C@H](CC(C)C)NC(=O)CNC(=O)[C@H](C)N)C(=O)N[C@@H](CCCCN)C(=O)N[C@@H](CCCCN)C(=O)NCC(=O)N[C@@H](Cc1ccccc1)C(=O)N[C@@H](CCCCN)C(=O)N[C@@H](CC(C)C)C(=O)O` (H-AGLFKKLARAIKKGFKL-OH), the Time with Vibrio parahaemolyticus [1] was more than 180 min. The MIC in the experiment on Escherichia coli came out at 9.38 µg/mL (≈ 4.96 µM); in the experiment on Bacillus cereus it was 9.38 µg/mL (≈ 4.96 µM); against Vibrio parahaemolyticus [2], 4.69 µg/mL (≈ 2.48 µM); in the experiment with Staphylococcus aureus [3] (read-out: MIC), 4.69 µg/mL (≈ 2.48 µM); in the experiment on Staphylococcus aureus [4], 18.8 µg/mL (≈ 9.92 µM). Also, the outcome in the experiment on Cell membrane was Active.

On to `CC[C@H](C)[C@H](NC(=O)[C@H](CC(C)C)NC(=O)[C@H](CCCNC(=N)N)NC(=O)[C@H](CC(C)C)NC(=O)[C@H](CC(C)C)NC(=O)[C@H](CC(C)C)NC(=O)[C@H](CCCCN)NC(=O)[C@H](Cc1ccccc1)NC(=O)[C@H](CC(C)C)NC(=O)CNC(=O)[C@@H](N)CC(C)C)C(=O)N[C@@H](CC(C)C)C(=O)N[C@@H](CCCCN)C(=O)NCC(=O)N[C@@H](Cc1ccccc1)C(=O)N[C@@H](CCCCN)C(=O)N[C@@H](CC(C)C)C(=O)O` (H-LGLFKLLLRLILKGFKL-OH), for which the MIC in the experiment with Escherichia coli, in the experiment with Bacillus cereus, in the experiment on Vibrio parahaemolyticus [2], in the experiment on Staphylococcus aureus [3] and in the experiment with Staphylococcus aureus [4] was more than 200 µg/mL each time.

Take `CC[C@H](C)[C@H](NC(=O)[C@H](CC(C)C)NC(=O)[C@H](CCCNC(=N)N)NC(=O)[C@H](CC(C)C)NC(=O)[C@H](CC(C)C)NC(=O)[C@H](CC(C)C)NC(=O)[C@H](CC(C)C)NC(=O)[C@H](Cc1ccccc1)NC(=O)[C@H](CC(C)C)NC(=O)CNC(=O)[C@@H](N)CC(C)C)C(=O)N[C@@H](CC(C)C)C(=O)N[C@@H](CCCCN)C(=O)NCC(=O)N[C@@H](Cc1ccccc1)C(=O)N[C@@H](CCCCN)C(=O)N[C@@H](CC(C)C)C(=O)O` (H-LGLFLLLLRLILKGFKL-OH): the MIC in the experiment on Escherichia coli, in the experiment on Bacillus cereus, in the experiment on Vibrio parahaemolyticus [2], in the experiment with Staphylococcus aureus [3] and against Staphylococcus aureus [4] was more than 200 µg/mL in each case.

In the case of `CC[C@H](C)[C@H](NC(=O)[C@H](C)NC(=O)[C@H](CCCNC(=N)N)NC(=O)[C@H](C)NC(=O)[C@H](CC(C)C)NC(=O)[C@H](CCCCN)NC(=O)[C@H](CCCCN)NC(=O)[C@H](Cc1ccccc1)NC(=O)[C@H](CC(C)C)NC(=O)CNC(=O)[C@@H](N)CCCNC(=N)N)C(=O)N[C@@H](CCCCN)C(=O)N[C@@H](CCCCN)C(=O)NCC(=O)N[C@@H](Cc1ccccc1)C(=O)N[C@@H](CCCCN)C(=O)N[C@@H](CCCCN)C(=O)O` (H-RGLFKKLARAIKKGFKK-OH), in the experiment with Vibrio parahaemolyticus [1], the Time was more than 180 min. Moreover, the MIC with Escherichia coli is 9.38 µg/mL (≈ 4.71 µM); in the experiment on Bacillus cereus, 18.8 µg/mL (≈ 9.42 µM); with Vibrio parahaemolyticus [2], 4.69 µg/mL (≈ 2.36 µM); in the experiment on Staphylococcus aureus [3] (read-out: MIC) it was 9.38 µg/mL (≈ 4.71 µM); with Staphylococcus aureus [4], 18.8 µg/mL (≈ 9.42 µM). In addition, the result with Cell membrane was Active.

For `CC[C@H](C)[C@H](NC(=O)[C@H](CCCCN)NC(=O)[C@H](CCCNC(=N)N)NC(=O)[C@H](CCCNC(=N)N)NC(=O)[C@H](CC(C)C)NC(=O)[C@H](CCCCN)NC(=O)[C@H](CCCCN)NC(=O)[C@H](Cc1ccccc1)NC(=O)[C@H](CC(C)C)NC(=O)CNC(=O)[C@@H](N)CCCNC(=N)N)C(=O)N[C@@H](CCCCN)C(=O)N[C@@H](CCCCN)C(=O)NCC(=O)N[C@@H](Cc1ccccc1)C(=O)N[C@@H](CCCCN)C(=O)N[C@@H](CCCCN)C(=O)O` (H-RGLFKKLRRKIKKGFKK-OH), the Time in the experiment on Vibrio parahaemolyticus [1] is more than 180 min. Also, the MIC was 18.8 µg/mL (≈ 8.8 µM) against Escherichia coli; 9.38 µg/mL (≈ 4.4 µM) against Bacillus cereus; 4.69 µg/mL (≈ 2.2 µM) in the experiment with Vibrio parahaemolyticus [2]; 4.69 µg/mL (≈ 2.2 µM) with Staphylococcus aureus [3] (read-out: MIC); 18.8 µg/mL (≈ 8.8 µM) in the experiment on Staphylococcus aureus [4]. In addition, the outcome with Cell membrane was Active.

Regarding `CC[C@H](C)[C@H](NC(=O)[C@H](CCCCN)NC(=O)[C@H](CCCNC(=N)N)NC(=O)[C@H](CCCNC(=N)N)NC(=O)[C@H](CC(C)C)NC(=O)[C@H](CCCCN)NC(=O)[C@H](CCCCN)NC(=O)[C@H](Cc1ccccc1)NC(=O)[C@H](CC(C)C)NC(=O)CNC(=O)[C@H](CCCNC(=N)N)NC(=O)[C@@H](N)CCCNC(=N)N)C(=O)N[C@@H](CCCCN)C(=O)N[C@@H](CCCCN)C(=O)NCC(=O)N[C@@H](Cc1ccccc1)C(=O)N[C@@H](CCCCN)C(=O)N[C@@H](CCCCN)C(=O)N[C@H](C(=O)N[C@@H](Cc1ccccc1)C(=O)N[C@@H](CCCCN)C(=O)N[C@@H](CCCNC(=N)N)C(=O)N[C@@H](CC(C)C)C(=O)N1CCC[C@H]1C(=O)N1CCC[C@H]1C(=O)N[C@H](C(=O)NCC(=O)N[C@H](C(=O)NCC(=O)N[C@H](C(=O)N[C@@H](CO)C(=O)N[C@H](C(=O)N1CCC[C@H]1C(=O)N[C@@H](CC(C)C)C(=O)N[C@@H](C)C(=O)NCC(=O)N[C@@H](CCCNC(=N)N)C(=O)N[C@@H](CCCNC(=N)N)C(=O)O)[C@@H](C)CC)C(C)C)C(C)C)C(C)C)[C@@H](C)CC` (H-RRGLFKKLRRKIKKGFKKIFKRLPPVGVGVSIPLAGRR-OH), in the experiment with Vibrio parahaemolyticus [1], the Time came out at 120 min. Further, the MIC was found to be 9.38 µg/mL (≈ 2.13 µM) with Escherichia coli; 4.69 µg/mL (≈ 1.07 µM) in the experiment on Bacillus cereus; 4.69 µg/mL (≈ 1.07 µM) against Vibrio parahaemolyticus [2]; 4.69 µg/mL (≈ 1.07 µM) with Staphylococcus aureus [3] (read-out: MIC); 9.38 µg/mL (≈ 2.13 µM) in the experiment on Staphylococcus aureus [4].

Take `CC[C@H](C)[C@H](NC(=O)[C@H](CCCCN)NC(=O)[C@H](CC(C)C)NC(=O)[C@H](C)NC(=O)CNC(=O)[C@H](CC(N)=O)NC(=O)[C@H](CC(C)C)NC(=O)[C@@H](NC(=O)[C@H](CCCCN)NC(=O)[C@H](CCCCN)NC(=O)[C@H](Cc1c[nH]c2ccccc12)NC(=O)[C@H](Cc1ccccc1)NC(=O)[C@H](CCCCN)NC(=O)[C@H](CCCNC(=N)N)NC(=O)[C@H](CCCNC(=N)N)NC(=O)[C@@H](N)[C@@H](C)O)C(C)C)C(=O)N[C@@H](C)C(=O)N1CCC[C@H]1C(=O)N[C@@H](Cc1ccccc1)C(=O)N[C@@H](CC(C)C)C(=O)N[C@@H](CC(C)C)C(=O)NCC(=O)O` (H-TRRKFWKKVLNGALKIAPFLLG-OH): the Time with Vibrio parahaemolyticus [1] is on record as 15 min. For the same compound, the MIC against Escherichia coli came out at 9.38 µg/mL (≈ 3.67 µM); in the experiment with Bacillus cereus, 9.38 µg/mL (≈ 3.67 µM); with Vibrio parahaemolyticus [2], 4.69 µg/mL (≈ 1.83 µM); with Staphylococcus aureus [3] (read-out: MIC) it was 2.34 µg/mL (≈ 0.915 µM); with Staphylococcus aureus [4] it was 9.38 µg/mL (≈ 3.67 µM).

As to `CN[C@H](CC(C)C)C(=O)N[C@H]1C(=O)N[C@@H](CC(N)=O)C(=O)N[C@H]2C(=O)N[C@H]3C(=O)N[C@H](C(=O)N[C@H](C(=O)O)c4cc(O)cc(O)c4-c4cc3ccc4O)[C@H](O)c3ccc(c(Cl)c3)Oc3cc2cc(c3O[C@@H]2O[C@H](CO)[C@@H](O)[C@H](O)[C@H]2O[C@H]2C[C@](C)(N)[C@H](O)[C@H](C)O2)Oc2ccc(cc2Cl)[C@H]1O` [VANCOMYCIN], the MIC is 75 µg/mL (≈ 51.8 µM) in the experiment on Escherichia coli; more than 200 µg/mL against Bacillus cereus; 75 µg/mL (≈ 51.8 µM) in the experiment on Vibrio parahaemolyticus [2]; 0.59 µg/mL (≈ 0.407 µM) with Staphylococcus aureus [3] (read-out: MIC); more than 200 µg/mL in the experiment with Staphylococcus aureus [4].
